Measurements: paper PMC12454639, “Direct disassembly of α-syn preformed fibrils into α-syn monomers by an all-D-peptide” (NPJ Parkinson's Disease, 2025)
Square brackets hold non-standard residues; d marks the D form. Peptide text beside a SMILES is read from it.

Assays:
[1] = test system: recombinant full-length α-syn; assay: De novo ThT aggregation screening assay (50 µM α-syn); assay type: biochemical
Method: The Thioflavin T (ThT) assay is commonly used for the visualization of α-syn fibrilization, since the dye ThT is able to bind to the amyloidogenic cross-β-sheet proportions of fibril structures. Recombinant α-syn was thawed on ice and centrifuged for 30 min at 21,000 × g and 4 °C. The concentration of the supernatant was determined as described previously. Lyophilized D-peptides were thawed at RT for 1 h and dissolved in 500 µl PBS pH 7.4. After centrifugation for 30 min at 21,000 × g the supernatant concentration was determined by UV–vis using the corresponding extinction coefficient at A280. All ThT assay experiments were performed at 37 °C with 15 µM ThT and 0.05% sodium azide (w/v) in PBS pH 7.4 if not otherwise stated. ThT fluorescence was monitored with bottom optics at λex = 448 nm and λem = 482 nm in a fluorescence plate reader with orbital averaging on 3 mm (Clariostar or Polarstar Optima, BMG labtech, GE). […]
ThT assay was used for different purposes. […] Lag-time and t½ were calculated as described previously. […]
Monomeric α-syn (Supplementary Fig. 3) was incubated with or without a 3-fold molar excess of the D-peptides. […] The ThT positive aggregation was fitted with a symmetric Boltzmann fit and t ½- and lag-time were calculated accordingly. […] ThT fluorescence progression was measured in a 96-well non-binding half-area with a FLUOStar plate reader at λex = 448 nm and λem = 482 nm. […]

α-syn monomer = assay: AFM of de novo aggregation endpoint samples; assay type: biochemical; details: 10 µM α-syn + 20 µM SVD-1a
Method: Fig. 7 De novo aggregation analysis of α-syn in the presence and absence of SVD-1a. A De novo ThT assay of 10 µM α-syn with and without 20 µM SVD-1a. ThT fluorescence progression was measured in a 96-well non-binding half-area plate (Corning, USA) with a FLUOStar plate reader (BMG labtech, GE) at λex = 448 nm and λem = 482 nm with 300 rpm continuous orbital shaking between reads. For induction of aggregation, one borosilicate bead per well was added (d = 3 mm, Hilgenberg, GE). Data are shown as mean values with ±SD (n = 5). B CD secondary structure analysis of de novo aggregation samples. Samples were incubated as described in (A) without added ThT (n = 3) and subsequently pooled for CD analysis. Far-UV ellipticity of the samples was measured in a quartz cuvette (l = 10 mm) in a J-1100 CD-spectrometer (Jasco, GE). In addition to (A), a sample with 20 µM SVD-1a alone was incubated under identical conditions and later used as a reference for the sample with α-syn and SVD-1a. For this sample (α-syn + SVD-1a (after incubation)), the SVD-1a reference subtracted CD spectrum is shown. […] D α-Syn in the flow through (MWCO < 100 kDa) was quantified using an α-syn specific ELISA (BioLegend, Human α-Synuclein (Colorimetric), 448607, n = 3). E Retentate and flow-through samples were analyzed using SDS–PAGE with silver staining. […]

SMILES	effect on α-syn aggregation, concentration dependency ([1]; 50 µM α-syn with 50, 150 or 250 µM D-peptide, PBS pH 7.4, n = 5)	effect on α-syn aggregation (t½ and lag-time) ([1]; 50 µM α-syn, 3-fold molar excess peptide, PBS pH 7.4, 37 °C, shaking 300 rpm 30 s per cycle, n = 3)	fibrils in endpoint samples (AFM) (α-syn monomer)
CC[C@@H](C)[C@@H](NC(=O)[C@@H](Cc1c[nH]cn1)NC(=O)[C@@H](CCC(=O)O)NC(=O)[C@@H](CCC(N)=O)NC(=O)[C@@H](Cc1c[nH]c2ccccc12)NC(=O)[C@@H](Cc1ccc(O)cc1)NC(=O)[C@H](NC(=O)[C@@H](CCC(=O)O)NC(=O)[C@@H](Cc1c[nH]cn1)NC(=O)[C@H](NC(=O)[C@H]1CCCN1C(=O)[C@@H](CCSC)NC(=O)[C@H](N)CCCCN)[C@H](C)O)[C@H](C)O)C(=O)N[C@H](Cc1c[nH]c2ccccc12)C(=O)N[C@H](Cc1c[nH]cn1)C(=O)N[C@H](C)C(N)=O [SVD-1] (H-[dK][dM][dP][dT][dH][dE][dT][dY][dW][dQ][dE][dH][dI][dW][dH][dA]-NH2)	most efficient	delayed α-syn aggregation	–
CC[C@@H](C)[C@@H](NC(=O)[C@@H](Cc1c[nH]cn1)NC(=O)[C@@H](CCC(=O)O)NC(=O)[C@@H](CCC(N)=O)NC(=O)[C@@H](Cc1c[nH]c2ccccc12)NC(=O)[C@@H](Cc1ccc(O)cc1)NC(=O)[C@H](NC(=O)[C@@H](CCC(=O)O)NC(=O)[C@@H](Cc1c[nH]cn1)NC(=O)[C@H](NC(=O)[C@H]1CCCN1C(=O)[C@@H](CC(C)C)NC(=O)[C@H](N)CCCNC(=N)N)[C@H](C)O)[C@H](C)O)C(=O)N[C@H](Cc1c[nH]c2ccccc12)C(=O)N[C@H](Cc1c[nH]cn1)C(=O)N[C@H](C)C(=O)N[C@H](CCCNC(=N)N)C(=O)N[C@H](CCCNC(=N)N)C(=O)N[C@H](CCCNC(=N)N)C(=O)N[C@H](CCCNC(=N)N)C(=O)N[C@H](CCCNC(=N)N)C(N)=O [SVD-1a] (H-[dR][dL][dP][dT][dH][dE][dT][dY][dW][dQ][dE][dH][dI][dW][dH][dA][dR][dR][dR][dR][dR]-NH2)	–	–	clearly do not contain any fibrils
